The subject of the test is HepaRG. As to the kind of experiment: LDH release cytotoxicity, % of total lysis control; higher = more cytotoxic. Conditions: 48 h. Summed up: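 The CytoTox-ONE kit was used to read LDH in 50 µL spent medium as resorufin fluorescence on a Tecan Safire, with 0.1% Triton X added to total lysis wells. Beforehand, single-lot HepaRG cells on collagen I-coated 96-well plates had been exposed in duplicate for 48 h to eight-point half-log series (top 100 µM) in serum-free induction medium containing 0.5% DMSO. Percent cytotoxicity was normalized against on-plate vehicle and total lysis controls and averaged over duplicates.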
For orientation: Release of lactate dehydrogenase indicates damage to the cell membrane.

± gives the standard deviation of the averaged measurements.

As for `CCCCC(CC)COP(=O)(OCC(CC)CCCC)OCC(CC)CCCC` (stereo not given) [Tris(2-ethylhexyl) phosphate], the LDH release cytotoxicity reads like this: (0.03162 µM) -1.762 ± 0.016%; (0.1 µM) -1.14 ± 0.93%; (0.3162278 µM) -1.21 ± 1.2%; (1 µM) -1.28 ± 1.1%; (3.16228 µM) -1.23 ± 0.96%; (10 µM) -1.26 ± 1.1%. In addition, the LDH release cytotoxicity is -0.783 ± 1.4% (31.6228 µM) and 0.473 ± 0.56% (100 µM).
As for `CCCCN(CCCC)SN(C)C(=O)Oc1cccc2c1OC(C)(C)C2` [Carbosulfan], the LDH release cytotoxicity by setting is: (0.03162 µM) -3.56 ± 2.3%; (0.1 µM) -0.722 ± 0.37%; (0.3162278 µM) -0.938 ± 0.067%; (1 µM) -0.712 ± 0.067%; (3.16228 µM) 0.429 ± 0.12%; (10 µM) 0.717 ± 0.68%. Moreover, the LDH release cytotoxicity (31.6228 µM) was -0.247 ± 0.45% and the LDH release cytotoxicity (100 µM) came out at 0.466 ± 0.2%.
Consider `CS(=O)(=O)OCCCCOS(C)(=O)=O` [Busulfan], for which the LDH release cytotoxicity runs as follows: (0.03162 µM) -1.48 ± 0.87%; (0.1 µM) -0.871 ± 0.9%; (0.3162278 µM) -1.32 ± 0.64%; (1 µM) -2.08 ± 0.32%; (3.16228 µM) -1.19 ± 0.19%; (10 µM) -0.461 ± 0.33%. Also, the LDH release cytotoxicity was determined as 0.385 ± 0.76% (31.6228 µM) and 0.593 ± 0.42% (100 µM).
`O=[N+]([O-])c1ccc(Oc2ccc(Cl)cc2Cl)cc1` [Nitrofen]: the LDH release cytotoxicity by setting is: (0.03162 µM) 0.322 ± 3%; (0.1 µM) -0.97 ± 0.56%; (0.3162278 µM) -0.303 ± 0.48%; (1 µM) -0.821 ± 0.57%; (3.16228 µM) -0.947 ± 1%; (10 µM) 0.734 ± 0.22%. For the same compound, the LDH release cytotoxicity by setting is: (31.6228 µM) 0.996 ± 0.67%; (100 µM) 3.046 ± 0.0066%.
On to `CC(Cc1ccc(OCC(=O)O)cc1)NCC(O)c1csc(C(F)(F)F)n1` (stereo not given), for which the LDH release cytotoxicity reads like this: (0.03162 µM) -1.76 ± 1.8%; (0.1 µM) -2.85 ± 0.47%; (0.3162278 µM) -1.56 ± 0.35%; (1 µM) -1.12 ± 0.24%; (3.16228 µM) -1.22 ± 0.57%; (10 µM) -0.599 ± 0.77%. The LDH release cytotoxicity stood at 0.839 ± 2.3% (31.6228 µM) and 0.309 ± 0.77% (100 µM).
As for `CC12CCC3C(CCC4=CC(=O)CCC43C)C1CCC2=O` (stereo not given) [4-Androstene-3,17-dione], the LDH release cytotoxicity is, setting by setting: (0.03162 µM) -0.88 ± 1.8%; (0.1 µM) -1.74 ± 1.8%; (0.3162278 µM) -3.47 ± 0.78%; (1 µM) -2.45 ± 0.041%; (3.16228 µM) -1.84 ± 0.94%; (10 µM) -1.3 ± 1.1%. The LDH release cytotoxicity (31.6228 µM) was -0.324 ± 1.7% and the LDH release cytotoxicity (100 µM) was found to be 37.8 ± 21%.
Take `Clc1cccc(Cl)c1Cl` [1,2,3-Trichlorobenzene]: the LDH release cytotoxicity is -0.151 ± 0.71% (0.031623 µM); -2.59 ± 0.72% (0.1 µM); -3.02 ± 0.044% (0.316228 µM); -2.67 ± 0.31% (1 µM); -3.67 ± 0.82% (3.16228 µM); -2.75 ± 0.99% (10 µM). In addition, the LDH release cytotoxicity (31.6228 µM) is -2 ± 0.85% and the LDH release cytotoxicity (100 µM) was -0.185 ± 0.67%.
Turning to `CNC(=O)ON=C(SC)C(=O)N(C)C` [Oxamyl], the LDH release cytotoxicity is, setting by setting: (0.03162 µM) -0.761 ± 0.13%; (0.1 µM) -0.802 ± 0.67%; (0.3162278 µM) -1.45 ± 0.73%; (1 µM) -1.85 ± 0.63%; (3.16228 µM) -1.65 ± 0.22%; (10 µM) -1.06 ± 0.34%. Further, the LDH release cytotoxicity was -1.05 ± 0.48% (31.6228 µM) and -1.42 ± 0.44% (100 µM).
As for `CCCCCCCCOC(=O)c1cc(O)c(O)c(O)c1` [Octyl gallate], the LDH release cytotoxicity reads like this: (0.03162 µM) -1.14 ± 0.66%; (0.1 µM) -0.159 ± 0.23%; (0.3162278 µM) -0.124 ± 0.33%; (1 µM) -0.776 ± 1.1%; (3.16228 µM) 0.219 ± 0.33%; (10 µM) -0.238 ± 0.52%. Further, the LDH release cytotoxicity is, setting by setting: (31.6228 µM) -1.86 ± 0.4%; (100 µM) 2.05 ± 1.3%.
In the case of `CC(C)C1(C)N=C(c2ncccc2C(=O)O)NC1=O` (stereo not given) [Imazapyr], the LDH release cytotoxicity is, setting by setting: (0.03162 µM) -1.83 ± 0.41%; (0.1 µM) -1.02 ± 0.061%; (0.3162278 µM) -1.62 ± 0.63%; (1 µM) -0.872 ± 0.078%; (3.16228 µM) -0.897 ± 0.67%; (10 µM) -1.03 ± 0.39%. Moreover, the LDH release cytotoxicity runs as follows: (31.6228 µM) -0.823 ± 0.31%; (100 µM) 0.363 ± 0.9%.
